# From US20050267029A1, “Compounds which modulate amyloidogenesis and methods for their identification and use” (priority 2004, published 2005)
# Where two headings read alike, the source gives them in different places. Square brackets hold non-standard residues; d marks the D form. Ends that are not written are not given here.
# T1: IAPP (Homo sapiens, UniProt P10997)
# T1 construct: human islet amyloid polypeptide, a major component of amyloid deposits found in the pancreas
# T1 sequence (P10997 34-70 limits assumed): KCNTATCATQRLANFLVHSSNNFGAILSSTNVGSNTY
# Tests used:
# [1] = test system: J774A.1 cells; settings: for Effect on amyloidogenesis / amyloid deposition in cell culture (in words): increasing concentrations of test agent
# Method: AA-amyloid deposits were detected by histochemical staining with Alcian blue and direct quantitation by Th-T fluorescence.
# The ability of a number of potential anti-amyloid compounds to modulate amyloid formation in this cell culture system was tested. To determine the effects of these potential anti-amyloid compounds, cell culture amyloidogenesis was induced in the presence of increasing concentrations of the test agents. Amyloid loads were quantified by Th-T fluorescence.
# The murine monocytic cell line J774A.1 (American Type Culture Collection, Manassas, Va.) was cultured in RPMI (Sigma) medium which contained 25 mM HEPES, 15% fetal bovine serum (FBS) and 50 μg/ml penicillin-streptomycin, at 37° C., 5% CO2. The cell stocks were passaged every four days, and the medium replaced every other day. Cells were seeded at a minimal density in 8-well chamber slides (Lab-Tek®, Nalge Nunc International, Naperville, Ill.) in 350 μl medium/well and allowed to reach about 80-90% confluence (3 days), about 2.2×10^5 cells per well. To induce AA-amyloidogenesis, cells were treated for 24 hours with 30 μg of AEF in the culture medium, then the medium was removed and the cells rinsed with fresh medium. To these cells 350 μl of medium was added containing either 0.3 mg/ml HDL-SAA, HDL, 0.05 mg/ml SAA1.1 or SAA2.1, replenished every two days for 7 days. At the end of the treatment period, the cells were either stained with Congo red to visualize the amyloid deposits, or the cells were dissolved in 1% NaOH and assayed for amyloid fibrils by thioflavin-T (Th-T) fluorescence as described by LeVine (Methods Enzymol. 1999 309:274-284).
# [2] = test system: J774A.1 cells; assay: Cell culture amyloidogenesis, amyloid detected by Congo Red (CR) staining; format: cell-based, murine
# Method: The murine monocytic cell line J774A.1 (American Type Culture Collection, Manassas, Va.) was cultured in RPMI (Sigma) medium which contained 25 mM HEPES, 15% fetal bovine serum (FBS) and 50 μg/ml penicillin-streptomycin, at 37° C., 5% CO2. The cell stocks were passaged every four days, and the medium replaced every other day. Cells were seeded at a minimal density in 8-well chamber slides (Lab-Tek®, Nalge Nunc International, Naperville, Ill.) in 350 μl medium/well and allowed to reach about 80-90% confluence (3 days), about 2.2×10^5 cells per well. […] At the end of the treatment period, the cells were either stained with Congo red to visualize the amyloid deposits, or the cells were dissolved in 1% NaOH and assayed for amyloid fibrils by thioflavin-T (Th-T) fluorescence as described by LeVine (Methods Enzymol. 1999 309:274-284). […]
# Congo Red (CR) staining for amyloid was performed on cells that were rinsed with PBS, fixed for 10 minutes in 70% ethanol, and then stained for 45 minutes with Congo red prepared in alkaline 80% ethanol, NaCl saturated solution. […] Quantitation of amyloid was performed by Th-T fluorescence as described by LeVine (Methods Enzymol. 1999 309:274-284). Fluorescence spectra of Th-T were acquired at 25° C. with a Spectra Max Gemini 96-well plate reader. […] Control spectra of Th-T and cell extract alone were determined. […]
# [3] = test system: J774 cells; assay: HDL-SAA binding/uptake by J774 cells (western blot); format: cell-based, murine; settings: 50 μM
# [4] = molecular target: T1, IAPP; settings: cited from earlier work
# [5] = molecular target: Aβ1-40 (Homo sapiens, UniProt P05067); settings: 100 μM, cell-free system; cited from earlier work
# Aβ1-40, sequence (P05067 672-711): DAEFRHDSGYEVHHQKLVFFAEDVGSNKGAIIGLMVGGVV
molecule,measurement,setting,value
ADQAANEWGRSGKDPNHFRPAGLPEKY [SEQ ID NO:9],Effect on amyloidogenesis / amyloid deposition in cell culture (in words),[1],equivalent inhibitory activity
ADQEANAAGASGKDPNYYRPPGLPAKY (OTHER INFORMATION: Synthetic) [27-mer; R83A/H84A/R86A],Effect on amyloidogenesis / amyloid deposition in cell culture (in words),[1],complete loss of inhibitory activity
ADQEANRHGRSGKDPNYYRPPGLPAKY ([dA][dD][dQ][dE][dA][dN][dR][dH]G[dR][dS]G[dK][dD][dP][dN][dY][dY][dR][dP][dP]G[dL][dP][dA][dK][dY]) [D-27mer],Formation of CR-detectable amyloid,"[2]; 20 μM, co-incubated with HDL-SAA",prevented the formation of any CR-detectable amyloid
ADQEANRHGRSGKDPNYYRPPGLPAKY [27-mer],Effect on HDL-SAA binding to J774 cells,[3],did not interfere with HDL-SAA binding to cells
same,IC50,[1],20 nM
same,Fold less than the SAA1.1 concentration used to generate AA-amyloid,[1]; 70 nM versus 4.2 μM SAA1.1,about 60 fold
same,Fold less peptide needed than the IAPP peptides (100 μM) for similar inhibition,[1]; 70 nM versus 100 μM,1400 fold
same,IC50 fold lower than that for PVS,[1]; 27-mer versus PVS,25 fold
same,Concentration achieving a similar level of inhibition (80 to 85%) of amyloid load,[1]; SAA1.1 concentration 4.2 μM,70 nM
ANRHGRSGKNPNYYRPPGLPAKY (ANRHGRSGKNPNYYRPPGLPAKY-NH2) [23-mer basic],Inhibition of CR-detectable amyloid,[2]; 2 μM,completely inhibit CR-detectable amyloid
FLVHSS [residues 15-20 of human islet amyloid polypeptide],Effect on beta-sheet transition and fibril formation of human islet amyloid polypeptide,[4],strong enhancers of beta-sheet transition and fibril formation
KLVFF [Aβ peptide (residues 16-20)],Effect on Aβ1-40 fibril assembly,[5],prevent fibril assembly
LANFLV [residues 12-17 of human islet amyloid polypeptide],Effect on beta-sheet transition and fibril formation of human islet amyloid polypeptide,[4],strong enhancers of beta-sheet transition and fibril formation
"PLPAQGKPGPDHYARNDSYAKNRYERG (OTHER INFORMATION: Synthetic) [SEQ ID NO:8, reference compound]",Effect on amyloidogenesis / amyloid deposition in cell culture (in words),[1],complete loss of inhibitory activity
WRAYTDMKEAGWKDGDKYFHARGNYDAAQRGPG [33-mer],Effect on HDL-SAA binding to J774 cells,[3],completely blocked HDL-SAA binding/uptake
same,Enhancement of amyloid formation,[1]; AEF preincubation not used,greater than 50%
same,Enhancement of amyloid formation,[1]; cells preincubated with AEF,up to 180%
same,Effect on amyloidogenesis / amyloid deposition in cell culture (in words),[1],increasing amyloid load in culture
chondroitin sulfate [reference compound],Effect on amyloidogenesis / amyloid deposition in cell culture (in words),[1],unable to affect amyloid deposition at any concentration tested
heparin [reference compound],Effect on HDL-SAA binding to J774 cells,[3],prevented HDL-SAA binding to cells
"polyvinylsulfonate [PVS, reference compound]",Effect on HDL-SAA binding to J774 cells,[3],prevented HDL-SAA binding to J774 cells
same,100% inhibition of amyloidogenesis (IC100),[1]; Th-T fluorescence,9 µM
same,IC50,"[1]; read-out: 50% inhibition of amyloidogenesis (IC50), Th-T fluorescence, test agent present throughout HDL-SAA treatments",500 nM
"SAA1.1: purified delipidated murine serum amyloid A isoform 1.1 (protein, UniProt P05366 20-122, looked up) Serum amyloid A-1 protein: GFFSFVHEAFQGAGDMWRAYTDMKEANWKNSDKYFHARGNYDAAQRGPGGVWAAEKISDGREAFQEFFGRGHEDTIADQEANRHGRSGKDPNYYRPPGLPDKY","Amyloid produced, % of HDL-SAA",[1]; purified delipidated isoform 50 μg/ml with AEF,9%
"SAA2.1: purified delipidated murine serum amyloid A isoform 2.1 (protein, UniProt P05367 20-122, looked up) Serum amyloid A-2 protein: GFFSFIGEAFQGAGDMWRAYTDMKEAGWKDGDKYFHARGNYDAAQRGPGGVWAAEKISDARESFQEFFGRGHEDTMADQEANRHGRSGKDPNYYRPPGLPAKY",Amyloid produced from SAA form (in words),"[1]; with AEF, CR stain or Th-T fluorescence",no amyloid was detected
